*1 amine or outer side, *2 acyl side, *3 side chain or, on linkers, in order; H or OH if unused. Where a SMILES comes first, the peptide text is derived from it. [ ]: non-standard residue; d: D form. The star is where a group is joined. ξ: configuration not given here. Gly(N(CH2)2(3-indolyl)) = O=C(O)CNCCc1c[nH]c2ccccc12; X11 = O=C([C@H](CC1CCCCC1)N(CCCc1ccccc1)[*:1])[*:2]; X13 = O=C([C@H](CC1CCCCC1)N(CCc1ccccc1)[*:1])[*:2]; X5 = O=C([C@H](CC1CCCCC1)N(Cc1ccccc1)[*:1])[*:2]; Pentanoyl(5-Ph) = O=C(CCCCc1ccccc1)*; d(hhPhe) = N[C@H](CCCc1ccccc1)C(=O)O; X2 = O=C(C(CCOc1ccccc1)N[*:1])[*:2]; hhPhe = N[C@@H](CCCc1ccccc1)C(=O)O; Hydrocinnamoyl = O=C(CCc1ccccc1)*; Cha = N[C@@H](CC1CCCCC1)C(=O)O; ξhhPhe = NC(CCCc1ccccc1)C(=O)O; X10 = O=C(Cc1c[nH]c2ccccc12)*; X1 = O=C(CC1CNc2ccccc21)*; PhAc = O=C(Cc1ccccc1)*; Ahp = NCCCCCCC(=O)O; X8 = c1ccc(CCC*)cc1; Ahx = NCCCCCC(=O)O; Bn = c1ccc(C*)cc1
Target: T1, C5a receptor (Homo sapiens, UniProt P21730)
T1 construct: from tissue; host or cells: polymorphonuclear leukocyte (PMNL) membrane fragments
T1 sequence (P21730 1-350): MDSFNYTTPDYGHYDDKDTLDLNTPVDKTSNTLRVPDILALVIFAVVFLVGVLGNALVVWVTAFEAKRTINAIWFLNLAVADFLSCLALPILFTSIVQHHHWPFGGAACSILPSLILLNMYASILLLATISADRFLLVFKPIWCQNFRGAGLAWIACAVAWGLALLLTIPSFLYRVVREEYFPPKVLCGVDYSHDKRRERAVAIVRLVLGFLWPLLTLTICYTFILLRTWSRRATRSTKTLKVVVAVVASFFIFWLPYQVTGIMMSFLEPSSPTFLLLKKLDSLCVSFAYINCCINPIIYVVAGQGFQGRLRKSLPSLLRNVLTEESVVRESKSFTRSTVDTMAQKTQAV
Assay: Anaphylatoxin (C5a) receptor binding Ki determination, 125I-C5a on PMNL membrane fragments
Conditions: read-out: Ki (In vitro C5a Receptor Binding Potency)
Protocol: The membrane-bound radiolabeled C5a was separated from the free radiolabeled C5a by filtration, and the recovered gamma radioactivity was measured. […] Free and membrane-bound ligand were separated by filtration.

Compound | Ki
CN[C@@H](Cc1ccccc1)C(=O)N[C@@H](CCCCN)C(=O)N1CCC[C@H]1C(=O)N[C@@H](CC1CCCCC1)C(=O)N[C@@H](C)C(=O)N[C@@H](CC(C)C)C(=O)NC(CCCc1ccccc1)C(=O)N[C@@H](CCCNC(=N)N)C(=O)O (single isomer, unassigned) [Example 129] | 17 nM
CC(C)C[C@H](NC(=O)[C@H](C)NC(=O)[C@H](CC1CCCCC1)NC(=O)CCCCCN)C(=O)NC(CCCc1ccccc1)C(=O)N[C@@H](CCCNC(=N)N)C(=O)O (single isomer, unassigned) [Example 135] | 1300 nM
CC(C)C[C@H](NC(=O)CNC(=O)[C@H](CCC1CCCCC1)NC(=O)CCCCCN)C(=O)NC(CCCc1ccccc1)C(=O)N[C@@H](CCCNC(=N)N)C(=O)O (single isomer, unassigned) [Example 137] | 4200 nM
CC(C)C[C@H](NC(=O)CNC(=O)[C@H](CCC1CCCCC1)NC(=O)CCCCCN)C(=O)NC(CCCc1ccccc1)C(=O)N[C@@H](CCCNC(=N)N)C(=O)O (single isomer, unassigned) [Example 138] | 330 nM
CC(C)C[C@H](NC(=O)CNC(=O)[C@H](CC1CCCCC1)NC(=O)CCCCN)C(=O)NC(CCCc1ccccc1)C(=O)N[C@@H](CCCNC(=N)N)C(=O)O (single isomer, unassigned) [Example 139] | 1100 nM
CC(C)C[C@H](NC(=O)CNC(=O)[C@H](CC1CCCCC1)NC(=O)CCCCN)C(=O)NC(CCCc1ccccc1)C(=O)N[C@@H](CCCNC(=N)N)C(=O)O (single isomer, unassigned) [Example 140] | 18600 nM
CC(C)C[C@H](NC(=O)CNC(=O)[C@H](CC1CCCCC1)NC(=O)NCc1cccc(CN)c1)C(=O)NC(CCCc1ccccc1)C(=O)N[C@@H](CCCNC(=N)N)C(=O)O (single isomer, unassigned) [Example 141] | 16000 nM
CC(C)C[C@H](NC(=O)CNC(=O)[C@H](CC1CCCCC1)NC(=O)NCc1cccc(CN)c1)C(=O)NC(CCCc1ccccc1)C(=O)N[C@@H](CCCNC(=N)N)C(=O)O (single isomer, unassigned) [Example 142] | 1300 nM
CC(C)C[C@H](NC(=O)[C@H](C)NC(=O)[C@H](CC1CCCCC1)NC(=O)[C@@H]1CCCN1C(=O)[C@H](CCCCN)NC(=O)[C@@H](N)Cc1ccccc1)C(=O)N[C@H](CCCc1ccccc1)C(=O)N[C@@H](CCCNC(=N)N)C(=O)O [Example 2, H-Phenylalanyl-Lysyl-Prolyl-{(2S)-2-Amino-3-cyclohexylpropanoyl}-Alanyl-Leucyl-{(R)-2-Amino-5-phenylpentanoyl}-Arginyl-OH] (H-FKP[Cha]AL[d(hhPhe)]R-OH) | 4.8 nM
CC(C)C[C@H](NC(=O)[C@H](C)NC(=O)[C@H](CC1CCCCC1)NC(=O)[C@@H]1CCCN1C(=O)[C@H](CCCCN)NC(=O)[C@@H](N)Cc1ccccc1)C(=O)N[C@@H](CCCc1ccccc1)C(=O)N[C@@H](CCCNC(=N)N)C(=O)O [Example 3, H-Phenylalanyl-Lysyl-Prolyl-{(2S)-2-Amino-3-cyclohexylpropanoyl}-Alanyl-Leucyl-{(S)-2-Amino-5-phenylpentanoyl}-Arginyl-OH] (H-FKP[Cha]AL[hhPhe]R-OH) | 13 nM
CC(C)C[C@H](NC(=O)Cc1c[nH]c2ccccc12)C(=O)N[C@@H](CCCc1ccccc1)C(=O)N[C@@H](CCCNC(=N)N)C(=O)O [Example 20, N-{Indole-3-acetyl}-Leucyl-{(S)-2-Amino-5-phenylpentanoyl}-Arginyl-OH] | 6650 nM
CC(C)C[C@H](NC(=O)[C@H](C)NC(=O)[C@H](CC1CCCCC1)NC(=O)[C@@H]1CCCN1C(=O)[C@H](CCCCN)NC(=O)CN)C(=O)N[C@H](CSCCCc1ccccc1)C(=O)N[C@@H](CCCNC(=N)N)C(=O)O [Example 22, H-Glycyl-Lysyl-Prolyl-{(2S)-2-Amino-3-cyclohexylpropanoyl}-Alanyl-Leucyl-DCysteinyl(S-3-phenylpropyl)-Arginyl-OH] (H-GKP[Cha]AL[dC](X8)R-OH) | 4700 nM
CC(C)C[C@H](NC(=O)[C@H](C)NC(=O)[C@H](CC1CCCCC1)NC(=O)[C@@H]1CCCN1C(=O)[C@H](CCCCN)NC(=O)CN)C(=O)N[C@H](CSCc1ccccc1)C(=O)N[C@@H](CCCNC(=N)N)C(=O)O [Example 31, H-Glycyl-Lysyl-Propyl-{(2S)-2-Amino-3-cyclohexylpropanoyl}-Alanyl-Leucyl-DCysteinyl(S-benzyl)-Arginyl-OH] (H-GKP[Cha]AL[dC](Bn)R-OH) | 1100 nM
CC(C)C[C@H](NC(=O)CCc1c[nH]c2ccccc12)C(=O)N[C@H](CCCc1ccccc1)C(=O)N[C@@H](CCCNC(=N)N)C(=O)O [Example 38, N=(Indole-3-propionyl)-Leucyl-{(R)-2-Amino-5-phenylpentanoyl}-Arginyl-OH] | 8400 nM
CC(C)C[C@H](NC(=O)CNC(=O)[C@H](CC1CCCCC1)NC(=O)Cc1ccccc1)C(=O)N[C@H](CCCc1ccccc1)C(=O)N[C@@H](CCCNC(=N)N)C(=O)O [Example 47, N-Phenylacetyl-{(2S)-2-Amino-3-cyclohexylpropanoyl}-Glycyl-Leucyl-{(R)-2-Amino-5-phenylpentanoyl}-Arginyl-OH] (PhAc-[Cha]GL[d(hhPhe)]R-OH) | 1100 nM
CC(C)C[C@H](NC(=O)CNC(=O)[C@H](CC1CCCCC1)NC(=O)CCCCCCN)C(=O)NC(CCOc1ccccc1)C(=O)N[C@@H](CCCNC(=N)N)C(=O)O (some centres unmarked) [Example 48] (H-[Ahp][Cha]GL[X2]R-OH) | 230 nM
CC(C)C[C@H](NC(=O)CNC(=O)[C@H](CC1CCCCC1)NC(=O)CCc1ccccc1)C(=O)N[C@H](CCCc1ccccc1)C(=O)N[C@@H](CCCNC(=N)N)C(=O)O [Example 49, N-(3-Phenylpropanoyl)-{(2S)-2-Amino-3-cyclohexylpropanoyl}-Glycyl-Leucyl-{(R)-2-Amino-5-phenylpentanoyl}-Arginyl-OH] (Hydrocinnamoyl-[Cha]GL[d(hhPhe)]R-OH) | 720 nM
CC(C)C[C@H](NC(=O)CNC(=O)Cc1c[nH]c2ccccc12)C(=O)N[C@H](CCCc1ccccc1)C(=O)N[C@@H](CCCNC(=N)N)C(=O)O [Example 50, N-(Indole-3-acetyl)-Glycyl-Leucyl-{(R)-2-Amino-5-phenylpentanoyl}-Arginyl-O] (X10-GL[d(hhPhe)]R-OH) | 190 nM
CC(C)C[C@H](NC(=O)CNC(=O)[C@H](CC1CCCCC1)NC(=O)CCCCc1ccccc1)C(=O)N[C@H](CCCc1ccccc1)C(=O)N[C@@H](CCCNC(=N)N)C(=O)O [Example 62, N-(5-Phenylvaleryl)-{(2S)-2-Amino-3-cyclohexylpropanoyl}-Glycyl-Leucyl-{(R)-2-Amino-5-phenylpentanoyl}-Arginyl-OH] ({Pentanoyl(5-Ph)}-[Cha]GL[d(hhPhe)]R-OH) | 1070 nM
CC(C)C[C@H](NC(=O)CNC(=O)[C@H](CC1CCCCC1)NCc1ccccc1)C(=O)N[C@H](CCCc1ccccc1)C(=O)N[C@@H](CCCNC(=N)N)C(=O)O [Example 63, H-{(2S)-2-Amino-3-cyclohexylpropanoyl}(N-Benzyl)-Glycyl-Leucyl-{(R)-2-Amino-5-phenylpentanoyl}-Arginyl-OH] (H-[X5]GL[d(hhPhe)]R-OH) | 400 nM
CC(C)C[C@H](NC(=O)CNC(=O)[C@H](CC1CCCCC1)N(Cc1ccccc1)C(=O)CCCCCCN)C(=O)N[C@H](CCCc1ccccc1)C(=O)N[C@@H](CCCNC(=N)N)C(=O)O [Example 64, N-(7-Aminoheptanoyl)-{(2S)-2-Amino-3-cyclohexylpropanoyl}(N-Benzyl)-Glycyl-Leucyl-{(R)-2-Amino-5-phenylpentanoyl}-Arginyl-OH] (H-[Ahp][X5]GL[d(hhPhe)]R-OH) | 470 nM
C[C@H](NC(=O)CNC(=O)[C@H](CC1CCCCC1)NC(=O)CCCCCN)C(=O)NC(CCCc1ccccc1)C(=O)N[C@@H](CCCNC(=N)N)C(=O)O (stereo partly drawn) [Example 74, N-(6-Aminohexanoyl)-{(2S)-2-Amino-3-cyclohexylpropanoyl}-Glycyl-Alanyl-{(+)-2-Amino-5-phenylpentanoyl}-Arginyl-OH] (H-[Ahx][Cha]GA[ξhhPhe]R-OH) | 91900 nM
CC(C)C[C@H](NC(=O)CNC(=O)[C@H](CC1CCCCC1)NCCCc1ccccc1)C(=O)N[C@H](CCCc1ccccc1)C(=O)N[C@@H](CCCNC(=N)N)C(=O)O [Example 77, N-(3-Phenylpropyl)-{(2S)-2-Amino-3-cyclohexylpropanoyl}-Glycyl-Leucyl-{(R)-2-Amino-5-phenylpentanoyl}-Arginyl-OH] (H-[X11]GL[d(hhPhe)]R-OH) | 50 nM
CC(C)C[C@H](NC(=O)CNC(=O)[C@H](CC1CCCCC1)NCCc1ccccc1)C(=O)N[C@H](CCCc1ccccc1)C(=O)N[C@@H](CCCNC(=N)N)C(=O)O [Example 78, N-(2-Phenethyl)-{(2S)-2-Amino-3-cyclohexylpropanoyl}-Glycyl-Leucyl-{(R)-2-Amino-5-phenylpentanoyl}-Arginyl-OH] (H-[X13]GL[d(hhPhe)]R-OH) | 70 nM
CC(C)C[C@H](NC(=O)CNCCc1c[nH]c2ccccc12)C(=O)N[C@H](CCCc1ccccc1)C(=O)N[C@@H](CCCNC(=N)N)C(=O)O [Example 79, N-[(Indol-3-yl)ethyl]-Glycyl-Leucyl-{(R)-2-Amino-5-phenylpentanoyl}-Arginyl-OH] (H-[Gly(N(CH2)2(3-indolyl))]L[d(hhPhe)]R-OH) | 390 nM
CC(C)C[C@H](NC(=O)CNC(=O)CC1CNc2ccccc21)C(=O)N[C@H](CCCc1ccccc1)C(=O)N[C@@H](CCCNC(=N)N)C(=O)O (stereo partly drawn) [Example 80, N-[(Indoline-3-yl)acetyl]-Glycyl-Leucyl-{(R)-2-Amino-5-phenylpentanoyl}-Arginyl-OH] (X1-GL[d(hhPhe)]R-OH) | 870 nM

— US5663148A, “Anaphylatoxin receptor ligands containing lipophilic residues” (Abbott Laboratories, priority 1994, dated 1997)
